The source of these data is patent publication US11872217B2, “Indanes as PD-L1 inhibitors” (CHEMOCENTRYX, INC., priority 2019, dated 2024).

The term IC50 denotes the midpoint of a concentration-inhibition curve. Read a high IC50 as weaker potency in that assay.

In this experiment the target is human PD-L1 / Human PD-1 (Homo sapiens (Human), UniProt Q9NZQ7). The experiment in a line: Enzyme-Linked Immunosorbent Assay (ELISA), PD-1/PD-L1 binding. The conditions noted are these: plates coated with human PD-L1; biotinylated human PD-1; absorbance at 450 nm. As to the method: 96 Well plates were coated with 1 μg/mL of human PD-L1 (obtained from R&D) in PBS overnight at 4° C. The wells were then blocked with 2% BSA in PBS (W/V) with 0.05% TWEEN-20 for 1 hour at 37° C. The plates were washed 3 times with PBS/0.05% TWEEN-20 and the compounds were serial diluted (1:5) in dilution medium and added to the ELISA plates. Human PD-1 and biotin 0.3 μg/mL (ACRO Biosystems) were added and incubated for 1 hour at 37° C. then washed 3 times with PBS/0.05% TWEEN-20. A second block was performed with 2% BSA in PBS (W/V)/0.05% TWEEN-20 for 10 min at 37° C. and the plates were washed 3 times with PBS/0.05% TWEEN-20. Streptavidin-HRP was added for 1 hour at 37° C. then the plates were washed 3 times with PBS/0.05% TWEEN-20. TMB substrate was added and reacted for 20 min at 37° C. A stop solution (2 N aqueous H2SO4) was added. The absorbance was read at 450 nm using a micro-plate spectrophotometer. The results are shown in Table 1: IC50 values are provided as follows: from 100 up to 10,000 nM (+); less than 100 nM (++).
Chain of human PD-L1 / Human PD-1 (Q9NZQ7 19-239): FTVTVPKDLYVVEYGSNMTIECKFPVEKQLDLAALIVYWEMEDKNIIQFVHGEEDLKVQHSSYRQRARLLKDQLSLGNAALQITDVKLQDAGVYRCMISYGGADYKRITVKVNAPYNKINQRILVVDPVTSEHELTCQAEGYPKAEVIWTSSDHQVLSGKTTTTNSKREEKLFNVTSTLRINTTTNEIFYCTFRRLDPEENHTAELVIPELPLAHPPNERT
For orientation: In an ELISA, binding on a coated surface is turned into a signal by an enzyme label.

As for `CN(Cc1cc(Cl)c(O[C@H]2CCc3c(-c4cccc5c4CC[C@@H]5Oc4cc(OCc5cncc(C#N)c5)c(CN(C)[C@@](C)(CO)C(=O)O)cc4Cl)cccc32)cc1OCc1cncc(C#N)c1)[C@@](C)(CO)C(=O)O` [Compound 1.033], the IC50 is under 100 nM. Compound `CC(C)OC(=O)[C@](C)(CO)NCc1cc(Cl)c(O[C@H]2CCc3c(-c4cccc5c4CC[C@@H]5Oc4cc(OCc5cncc(C#N)c5)c(CN[C@@](C)(CO)C(=O)OC(C)C)cc4Cl)cccc32)cc1OCc1cncc(C#N)c1` [Compound 1.041] gave an IC50 of 100 to 10000 nM. On to `CCOc1cc(O[C@H]2CCc3c(-c4cccc(COc5cc(COC)c(CN6CCC(OC(=O)[C@@H](N)C(C)C)CC6)cc5Cl)c4C)cccc32)c(Cl)cc1CN1CCC(OC(=O)[C@@H](N)C(C)C)CC1` [Compound 1.001], for which the IC50 lay in the range of 100 to 10000 nM.

Compound `N#Cc1cncc(COc2cc(O[C@H]3CCc4c(-c5cccc6c5CC[C@@H]6Oc5cc(OCc6cncc(C#N)c6)c(CNCC(=O)O)cc5Cl)cccc43)c(Cl)cc2CNCC(=O)O)c1` [Compound 1.017] came in with an IC50 of under 100 nM. The result for `CCOc1cc(NC2CCc3c(-c4cccc(COc5cc(OCC)c(CN(C)CCCC(=O)O)cc5Cl)c4C)cccc32)c(Cl)cc1CN(C)CCCC(=O)O` (centres unmarked) [Compound 1.015] reads under 100 nM. The result for `CCOc1cc(OCc2cccc(-c3cccc4c3CCC4Oc3ccc(CN[C@@](C)(CO)C(=O)O)c(OCC)c3)c2C)ccc1CN[C@@](C)(CO)C(=O)O` (some centres unmarked) [Compound 1.023] reads 100 to 10000 nM; that for `CCOc1cc(O[C@H]2CCc3c(-c4cccc5c4CC[C@@H]5Oc4cc(OCC)c(CN[C@H](C(=O)NS(C)(=O)=O)[C@@H](C)O)cc4Cl)cccc32)c(Cl)cc1CN[C@H](C(=O)NS(C)(=O)=O)[C@@H](C)O` [Compound 1.030], under 100 nM; that for `CCOc1cc(OCc2cccc(-c3cccc4c3CC[C@@H]4Oc3cc(OCC)c(CNCCS(=O)(=O)O)cc3Cl)c2C)c(Cl)cc1CNCCS(=O)(=O)O` [Compound 1.004], under 100 nM.

In turn, `CCOc1cc(O[C@H]2CCc3c(-c4cccc5c4CC[C@@H]5Oc4cc(OCC)c(CN(C)CCCC(=O)O)cc4Cl)cccc32)c(Cl)cc1CN(C)CCCC(=O)O` [Compound 1.025] returned an IC50 of under 100 nM. In the case of `CCOc1cc(O[C@H]2CCc3c(-c4cccc5c4CC[C@@H]5Oc4cc(OCC)c(CN[C@@](C)(CO)C(=O)O)cc4Cl)cccc32)c(Cl)cc1CNC[C@@H]1CCC(=O)N1` [Compound 1.032] it was under 100 nM. Take `Cc1cc(CN[C@@](C)(CO)C(=O)O)ccc1OCc1cccc(-c2cccc3c2CCC3Oc2ccc(CN[C@@](C)(CO)C(=O)O)cc2C)c1C` (some centres unmarked) [Compound 1.008]: the IC50 was under 100 nM.

`CCOc1cc(O[C@H]2CCc3c(-c4cccc5c4CC[C@@H]5Oc4cc(OCC)c(CN[C@@](C)(CO)C(=O)OC)cc4Cl)cccc32)c(Cl)cc1CN[C@@](C)(CO)C(=O)OC` [Compound 1.022] registered an IC50 of 100 to 10000 nM. `Cc1c(COc2ccc(CN[C@@](C)(CO)C(=O)O)cc2Cl)cccc1-c1cccc2c1CCC2Oc1ccc(CN[C@@](C)(CO)C(=O)O)cc1Cl` (some centres unmarked) [Compound 1.024] showed an IC50 of under 100 nM. In the case of `CCOc1cc(O[C@H]2CCc3c(-c4cccc5c4CC[C@@H]5Oc4cc(OCC)c(CN[C@H](C(=O)OC)[C@@H](C)O)cc4Cl)cccc32)c(Cl)cc1CN[C@H](C(=O)OC)[C@@H](C)O` [Compound 1.034], the IC50 was 100 to 10000 nM. The result for `CCOc1cc(O[C@H]2CCc3c(-c4cccc5c4CC[C@@H]5Oc4cc(OCC)c(CN5CC6(CC(O)C6)C5)cc4Cl)cccc32)c(Cl)cc1CN1CC2(CC(O)C2)C1` [Compound 1.050] reads under 100 nM; that for `CCOc1cc(O[C@H]2CCc3c(-c4cccc5c4CC[C@@H]5Oc4cc(OCc5cncc(C#N)c5)c(CN[C@@](C)(CO)C(=O)O)cc4Cl)cccc32)c(Cl)cc1CN[C@@](C)(CO)C(=O)O` [Compound 1.040], under 100 nM; that for `CCOc1cc(O[C@@H]2c3cccc(-c4cccc(COc5cc(COC)c(CN[C@@](C)(CO)C(=O)O)cc5Cl)c4C)c3C[C@@H]2F)c(Cl)cc1CN[C@@](C)(CO)C(=O)O` (mixture of isomers) [Compound 1.020], under 100 nM. The compound `CCOc1cc(NC2CCc3c(-c4cccc(COc5cc(OCC)c(CN(C)CCCC(=O)OC)cc5Cl)c4C)cccc32)c(Cl)cc1CN(C)CCCC(=O)OC` (centres unmarked) [Compound 1.016] displayed an IC50 of 100 to 10000 nM. The result for `CCOc1cc(O[C@H]2CCc3c(-c4cccc5c4CC[C@@H]5Oc4cc(OCC)c(CN5CCC6(C5)NC(=O)NC6=O)cc4Cl)cccc32)c(Cl)cc1CN[C@@](C)(CO)C(=O)O` (some centres unmarked) [Compound 1.028] reads under 100 nM.

`CCOc1cc(O[C@H]2CCc3c(-c4cccc5c4CC[C@@H]5Oc4cc(OCC)c(CN(C)CCCC(=O)OC)cc4Cl)cccc32)c(Cl)cc1CN(C)CCCC(=O)OC` [Compound 1.021]: the IC50 is 100 to 10000 nM. The result for `C[C@@](CO)(NCc1cc(Cl)c(O[C@H]2CCc3c(-c4cccc5c4CC[C@@H]5Oc4cc(OCc5cncc(C#N)c5)c(CN[C@@](C)(CO)C(=O)O)cc4Cl)cccc32)cc1OCc1cncc(C#N)c1)C(=O)O` [Compound 1.051] reads under 100 nM. The result for `CCOc1cc(O[C@H]2CCc3c(-c4cccc5c4CC[C@@H]5Oc4cc(OCC)c(CN[C@H](CO)C(=O)O)cc4Cl)cccc32)c(Cl)cc1CN[C@H](CO)C(=O)O` [Compound 1.018] reads under 100 nM; that for `CCOc1cc(O[C@H]2CCc3c(-c4cccc(COc5cc(COC)c(CN[C@@](C)(CO)C(=O)O)cc5Cl)c4C)cccc32)c(Cl)cc1CN[C@@](C)(CO)C(=O)O` [Compound 1.036], under 100 nM. In the case of `CCOc1cc(O[C@H]2CCc3c(-c4cccc(COc5ccc(CN(C)C)cc5)c4C)cccc32)c(Cl)cc1CN[C@@](C)(CO)C(=O)O` [Compound 1.037] it was under 100 nM.

`CCOc1cc(O[C@H]2CCc3c(-c4cccc5c4CC[C@@H]5Oc4cc(OCC)c(CN[C@@H](CCO)C(=O)O)cc4Cl)cccc32)c(Cl)cc1CN[C@@H](CCO)C(=O)O` [Compound 1.047]: the IC50 is under 100 nM. The result for `CCOc1cc(O[C@H]2CCc3c(-c4cccc5c4CC[C@@H]5Oc4cc(OCC)c(CN5CCC5(C)C)cc4Cl)cccc32)c(Cl)cc1CN1CCC1(C)C` [Compound 1.048] reads under 100 nM. The result for `CCOc1cc(O[C@H]2CCc3c(-c4cccc5c4CC[C@@H]5Oc4cc(OCC)c(CN)cc4Cl)cccc32)c(Cl)cc1CN` [Compound 1.003] reads 100 to 10000 nM. `CCOc1cc(O[C@H]2CCc3c(-c4cccc5c4CC[C@@H]5Oc4cc(OCC)c(CN[C@H](C(=O)O)[C@@H](C)O)cc4Cl)cccc32)c(Cl)cc1CN[C@H](C(=O)O)[C@@H](C)O` [Compound 1.042] yielded an IC50 of under 100 nM.

For `CCOc1cc(O[C@H]2CCc3c(-c4cccc5c4CC[C@@H]5Oc4cc(OCC)c(CN(C)[C@@H](CO)C(=O)O)cc4Cl)cccc32)c(Cl)cc1CN(C)[C@@H](CO)C(=O)O` [Compound 1.002], the IC50 is under 100 nM. In the case of `CCOc1cc(O[C@H]2CCc3c(-c4cccc5c4CC[C@@H]5Oc4cc(OCC)c(CN(C)[C@@](C)(CO)C(=O)O)cc4Cl)cccc32)c(Cl)cc1CN(C)[C@@](C)(CO)C(=O)O` [Compound 1.019] it was under 100 nM; in that of `CCOc1cc(O[C@H]2CCc3c(-c4cccc5c4CC[C@H]5Oc4cc(OCC)c(CN[C@@](C)(CO)C(=O)O)cc4Cl)cccc32)c(Cl)cc1CN[C@@](C)(CO)C(=O)O` [Compound 1.031], under 100 nM; in that of `CCOc1cc(O[C@H]2CCc3c(-c4cccc(COc5cc(COC)c(CN6CCC(OC(=O)C(C)C)CC6)cc5Cl)c4C)cccc32)c(Cl)cc1CN1CCC(OC(=O)C(C)C)CC1` [Compound 1.005], 100 to 10000 nM.
